The text below walks through data of US7750003B2, “Compounds-943” (AstraZeneca AB, priority 2006, dated 2010).

recombinant mTOR (FLAG-tagged, residues 1362-2549), sequence (P42345 1362-2549): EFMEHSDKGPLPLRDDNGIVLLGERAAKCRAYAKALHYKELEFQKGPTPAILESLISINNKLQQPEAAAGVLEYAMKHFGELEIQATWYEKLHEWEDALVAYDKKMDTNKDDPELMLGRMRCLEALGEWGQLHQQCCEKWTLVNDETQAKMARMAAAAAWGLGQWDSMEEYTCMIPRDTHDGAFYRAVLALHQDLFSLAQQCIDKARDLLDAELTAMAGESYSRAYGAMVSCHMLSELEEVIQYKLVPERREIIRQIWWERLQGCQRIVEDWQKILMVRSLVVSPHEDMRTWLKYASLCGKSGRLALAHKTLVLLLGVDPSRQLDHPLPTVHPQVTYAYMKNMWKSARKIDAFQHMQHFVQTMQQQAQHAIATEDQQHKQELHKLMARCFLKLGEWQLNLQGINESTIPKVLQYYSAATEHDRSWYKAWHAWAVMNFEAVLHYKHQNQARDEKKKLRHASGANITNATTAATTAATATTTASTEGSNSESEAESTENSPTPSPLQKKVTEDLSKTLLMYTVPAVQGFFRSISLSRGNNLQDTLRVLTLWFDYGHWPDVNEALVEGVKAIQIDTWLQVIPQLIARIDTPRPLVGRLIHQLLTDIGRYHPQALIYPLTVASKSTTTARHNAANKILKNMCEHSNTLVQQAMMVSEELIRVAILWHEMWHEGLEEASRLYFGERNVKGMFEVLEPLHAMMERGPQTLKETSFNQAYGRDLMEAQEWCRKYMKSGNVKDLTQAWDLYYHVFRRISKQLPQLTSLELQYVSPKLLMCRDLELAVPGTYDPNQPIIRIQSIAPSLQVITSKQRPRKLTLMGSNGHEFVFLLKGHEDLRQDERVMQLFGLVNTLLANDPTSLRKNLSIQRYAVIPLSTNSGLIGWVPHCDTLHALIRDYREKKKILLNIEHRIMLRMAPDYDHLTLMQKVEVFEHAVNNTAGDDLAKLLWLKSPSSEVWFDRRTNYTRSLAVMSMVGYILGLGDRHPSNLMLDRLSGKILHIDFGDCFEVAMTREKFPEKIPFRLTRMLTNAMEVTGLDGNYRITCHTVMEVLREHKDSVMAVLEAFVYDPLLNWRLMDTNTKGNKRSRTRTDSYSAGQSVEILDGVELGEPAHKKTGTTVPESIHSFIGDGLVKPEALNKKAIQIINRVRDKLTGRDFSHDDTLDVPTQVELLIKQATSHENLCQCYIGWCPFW

In the assay the target is recombinant mTOR (FLAG-tagged, residues 1362-2549) (Homo sapiens, UniProt P42345). The experiment in a line: In vitro mTOR kinase assay (Test (a), AlphaScreen). It is filed as biochemical. To be noted: ATP 20 μM, read-out: Test (a): IC50 versus mTOR kinase. The essentials:
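AlphaScreen read-out: a phospho-T389 p70 S6K antibody on acceptor beads captures the phosphorylated biotin-peptide on donor beads, with signal loss indicating inhibition.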
`CS(=O)(=O)Cc1cc(N2CCOCC2)nc(-c2ccc(NC(=O)NCCN3CCOCC3)cc2)n1` [Example 45o, 1-[4-[4-(methylsulfonylmethyl)-6-morpholin-4-yl-pyrimidin-2-yl]phenyl]-3-(2-morpholin-4-ylethyl)urea]: the IC50 was found to be 900 nM.

With `CC(C)(C)CNC(=O)Nc1ccc(-c2nc(CS(C)(=O)=O)cc(N3CCOCC3)n2)cc1` [Example 45p, 1-(2,2-dimethylpropyl)-3-[4-[4-(methylsulfonylmethyl)-6-morpholin-4-yl-pyrimidin-2-yl]phenyl]urea], the IC50 worked out at 920 nM. As for `CS(=O)(=O)Cc1cc(N2CCOCC2)nc(-c2ccc(NC(=O)NCCCO)cc2)n1` [Example 45q, 3-(3-hydroxypropyl)-1-[4-[4-(methylsulfonylmethyl)-6-morpholin-4-yl-pyrimidin-2-yl]phenyl]urea], the figure is 32 nM. As for `CN(Cc1ccccc1)C(=O)Nc1ccc(-c2nc(CS(C)(=O)=O)cc(N3CCOCC3)n2)cc1` [Example 45r, 1-benzyl-1-methyl-3-[4-[4-(methylsulfonylmethyl)-6-morpholin-4-yl-pyrimidin-2-yl]phenyl]urea], the figure is 410 nM. As for `CCOCCNC(=O)Nc1ccc(-c2nc(CS(C)(=O)=O)cc(N3CCOCC3)n2)cc1` [Example 45s, 1-(2-ethoxyethyl)-3-[4-[4-(methylsulfonylmethyl)-6-morpholin-4-yl-pyrimidin-2-yl]phenyl]urea], the figure is 300 nM; as for `CC(CO)NC(=O)Nc1ccc(-c2nc(CS(C)(=O)=O)cc(N3CCOCC3)n2)cc1` (stereo not shown) [Example 45t, 1-(1-hydroxypropan-2-yl)-3-[4-[4-(methylsulfonylmethyl)-6-morpholin-4-yl-pyrimidin-2-yl]phenyl]urea], 82 nM. Turning to `CS(=O)(=O)Cc1cc(N2CCOCC2)nc(-c2ccc(NC(=O)NC3CCOCC3)cc2)n1` [Example 45u, 1-[4-[4-(methylsulfonylmethyl)-6-morpholin-4-yl-pyrimidin-2-yl]phenyl]-3-(oxan-4-yl)urea], the IC50 stood at 420 nM. As for `CS(=O)(=O)Cc1cc(N2CCOCC2)nc(-c2ccc(NC(=O)N3CCNC(=O)C3)cc2)n1` [Example 45v, [4-[4-(methylsulfonylmethyl)-6-morpholin-4-yl-pyrimidin-2-yl]phenyl]-3-oxo-piperazine-1-carboxamide], the figure is 1200 nM; as for `CN1CCN(CCNC(=O)Nc2ccc(-c3nc(CS(C)(=O)=O)cc(N4CCOCC4)n3)cc2)CC1` [Example 45w, 1-[2-(4-methylpiperazin-1-yl)ethyl]-3-[4-[4-(methylsulfonylmethyl)-6-morpholin-4-yl-pyrimidin-2-yl]phenyl]urea], 740 nM; as for `CN(CCS(C)(=O)=O)C(=O)Nc1ccc(-c2nc(CS(C)(=O)=O)cc(N3CCOCC3)n2)cc1` [Example 45x, 1-methyl-1-(2-methylsulfonylethyl)-3-[4-[4-(methylsulfonylmethyl)-6-morpholin-4-yl-pyrimidin-2-yl]phenyl]urea], 1100 nM. Next, `CNC(=O)C1CCN(C(=O)Nc2ccc(-c3nc(CS(C)(=O)=O)cc(N4CCOCC4)n3)cc2)CC1` [Example 45y, N′-methyl-N-[4-[4-(methylsulfonylmethyl)-6-morpholin-4-yl-pyrimidin-2-yl]phenyl]piperidine-1,4-dicarboxamide]: 1200 nM; `CN(C)C(=O)CNC(=O)Nc1ccc(-c2nc(CS(C)(=O)=O)cc(N3CCOCC3)n2)cc1` [Example 45z, N,N-dimethyl-2-[[4-[4-(methylsulfonylmethyl)-6-morpholin-4-yl-pyrimidin-2-yl]phenyl]carbamoylamino] acetamide]: 1000 nM.

For `CNC(=O)Nc1ncc(-c2nc(CS(C)(=O)=O)cc(N3CCOC[C@@H]3C)n2)s1` [Example 46, 3-Methyl-1-[5-[4-[(3S)-3-methylmorpholin-4-yl]-6-(methylsulfonylmethyl)pyrimidin-2-yl]-1,3-thiazol-2-yl]urea], the IC50 worked out at 140 nM. As for `CC(C)NC(=O)Nc1ncc(-c2nc(CS(C)(=O)=O)cc(N3CCOC[C@@H]3C)n2)s1` [Example 46a, 1-[5-[4-[(3S)-3-methylmorpholin-4-yl]-6-(methylsulfonylmethyl)pyrimidin-2-yl]-1,3-thiazol-2-yl]-3-propan-2-yl-urea], the figure is 350 nM; as for `CCNC(=O)Nc1ncc(-c2nc(CS(C)(=O)=O)cc(N3CCOC[C@@H]3C)n2)s1` [Example 46b, 1-ethyl-3-[5-[4-[(3S)-3-methylmorpholin-4-yl]-6-(methylsulfonylmethyl)pyrimidin-2-yl]-1,3-thiazol-2-yl]urea], 6.1 nM; as for `C[C@H]1COCCN1c1cc(CS(C)(=O)=O)nc(-c2cnc(NC(=O)Nc3ccccc3)s2)n1` [Example 46c, 1-[5-[4-[(3S)-3-methylmorpholin-4-yl]-6-(methylsulfonylmethyl)pyrimidin-2-yl]-1,3-thiazol-2-yl]-3-phenyl-urea], 450 nM. Next, `C[C@H]1COCCN1c1cc(CS(C)(=O)=O)nc(-c2cnc(NC(=O)Nc3ccc(F)cc3)s2)n1` [Example 46d, 3-(4-fluorophenyl)-1-[5-[4-[(3S)-3-methylmorpholin-4-yl]-6-(methylsulfonylmethyl)pyrimidin-2-yl]-1,3-thiazol-2-yl]urea]: 850 nM; `C[C@H]1COCCN1c1cc(CS(C)(=O)=O)nc(-c2cnc(NC(=O)N(C)C3CC3)s2)n1` [Example 46e, 1-cyclopropyl-1-methyl-3-[5-[4-[(3S)-3-methylmorpholin-4-yl]-6-(methylsulfonylmethyl)pyrimidin-2-yl]-1,3-thiazol-2-yl]urea]: 710 nM; `COc1ccc(NC(=O)Nc2ncc(-c3nc(CS(C)(=O)=O)cc(N4CCOC[C@@H]4C)n3)s2)cc1` [Example 46f, 3-(4-methoxyphenyl)-1-[5-[4-[(3S)-3-methylmorpholin-4-yl]-6-(methylsulfonylmethyl)pyrimidin-2-yl]-1,3-thiazol-2-yl]urea]: 1200 nM. Next, `C[C@H]1COCCN1c1cc(CS(C)(=O)=O)nc(-c2cnc(NC(=O)NCCN(C)C)s2)n1` [Example 46g, 3-(2-dimethylaminoethyl)-1-[5-[4-[(3S)-3-methylmorpholin-4-yl]-6-(methylsulfonylmethyl)pyrimidin-2-yl]-1,3-thiazol-2-yl]urea]: 730 nM; `C[C@H]1COCCN1c1cc(CS(C)(=O)=O)nc(-c2cnc(NC(=O)Nc3cnn(C)c3)s2)n1` [Example 46h, 1-[5-[4-[(3S)-3-methylmorpholin-4-yl]-6-(methylsulfonylmethyl)pyrimidin-2-yl]-1,3-thiazol-2-yl]-3-(1-methylpyrazol-4-yl)urea]: 63 nM; `C[C@H]1COCCN1c1cc(CS(C)(=O)=O)nc(-c2cnc(NC(=O)NC3CC3)s2)n1` [Example 46i, 3-cyclopropyl-1-[5-[4-[(3S)-3-methylmorpholin-4-yl]-6-(methylsulfonylmethyl)pyrimidin-2-yl]-1,3-thiazol-2-yl]urea]: 97 nM. In the case of `CNC(=O)Nc1ncc(-c2nc(N3CCOC[C@@H]3C)cc(C(C)(C)S(C)(=O)=O)n2)s1` [Example 47, 3-Methyl-1-[5-[4-[(3S)-3-methylmorpholin-4-yl]-6-(2-methylsulfonylpropan-2-yl)pyrimidin-2-yl]-1,3-thiazol-2-yl]urea], the IC50 is 260 nM.

Turning to `C[C@H]1COCCN1c1cc(C(C)(C)S(C)(=O)=O)nc(-c2cnc(NC(=O)NC3CC3)s2)n1` [Example 47a, 3-cyclopropyl-1-[5-[4-[(3S)-3-methylmorpholin-4-yl]-6-(2-methylsulfonylpropan-2-yl)pyrimidin-2-yl]-1,3-thiazol-2-yl]urea], the IC50 is 1200 nM. In the case of `C[C@H]1COCCN1c1cc(C(C)(C)S(C)(=O)=O)nc(-c2cnc(NC(=O)Nc3cnn(C)c3)s2)n1` [Example 47b, 1-[5-[4-[(3S)-3-methylmorpholin-4-yl]-6-(2-methylsulfonylpropan-2-yl)pyrimidin-2-yl]-1,3-thiazol-2-yl]-3-(1-methylpyrazol-4-yl)urea], the half-inhibitory concentration (IC50) worked out at 410 nM.

With `C[C@H]1COCCN1c1cc(C(C)(C)S(C)(=O)=O)nc(-c2cnc(NC(=O)NCc3cnn(C)c3)s2)n1` [Example 47c, 1-[5-[4-[(3S)-3-methylmorpholin-4-yl]-6-(2-methylsulfonylpropan-2-yl)pyrimidin-2-yl]-1,3-thiazol-2-yl]-3-[(1-methylpyrazol-4-yl)methyl]urea], the IC50 was 1400 nM. As for `CCNC(=O)Nc1ncc(-c2nc(N3CCOC[C@@H]3C)cc(C(C)(C)S(C)(=O)=O)n2)s1` [Example 47d, 1-ethyl-3-[5-[4-[(3S)-3-methylmorpholin-4-yl]-6-(2-methylsulfonylpropan-2-yl)pyrimidin-2-yl]-1,3-thiazol-2-yl]urea], the figure is 970 nM; as for `C[C@H]1COCCN1c1cc(CNC2CC2)nc(-c2ccc(NC(=O)NC3CC3)cc2)n1` [Example 49, 3-Cyclopropyl-1-[4-[4-[(cyclopropylamino)methyl]-6-[(3S)-3-methylmorpholin-4-yl]pyrimidin-2-yl]phenyl]urea], 33 nM; as for `C[C@H]1COCCN1c1cc(CN(C)CCO)nc(-c2ccc(NC(=O)NC3CC3)cc2)n1` [Example 49a, 3-cyclopropyl-1-[4-[4-[(2-hydroxyethyl-methyl-amino)methyl]-6-[(3S)-3-methylmorpholin-4-yl]pyrimidin-2-yl]phenyl]urea], 150 nM. As for `C[C@H]1COCCN1c1cc(CN2CCN(C)CC2)nc(-c2ccc(NC(=O)NC3CC3)cc2)n1` [Example 49b, 3-cyclopropyl-1-[4-[4-[(3S)-3-methylmorpholin-4-yl]-6-[(4-methylpiperazin-1-yl)methyl]pyrimidin-2-yl]phenyl]urea], the figure is 14 nM. As for `COCCNCc1cc(N2CCOC[C@@H]2C)nc(-c2ccc(NC(=O)NC3CC3)cc2)n1` [Example 49c, 3-cyclopropyl-1-[4-[4-[(2-methoxyethylamino)methyl]-6-[(3S)-3-methylmorpholin-4-yl]pyrimidin-2-yl]phenyl]urea], the figure is 40 nM.
